# In US20240252456A1, “ORAL COMPOSITION, SKIN COSMETIC AND HAIR COSMETIC” (MARUZEN PHARMACEUTICALS CO., LTD., priority 2021, published 2024):
# What was measured:
# HAS3 mRNA = experiment: Hyaluronic acid synthase 3 (HAS3) mRNA expression promotive action test; type: cell-based, human; details: 25 μmol/L; NHEK, 24 hours; A/B×100, corrected with GAPDH
# Protocol: Normal human neonatal epidermal keratinocytes (NHEK) were precultured using normal human epidermal keratinocyte growth medium (KGM), and the cells were collected by a trypsin treatment. The collected cells were diluted with KGM to a cell density of 15×10^4 cells/mL, then seeded with 2 mL portions in a 6-well plate (30×10^4 cells/well), and cultured overnight under conditions of 37° C. and 5% CO2. After culturing, the medium was replaced with normal human epidermal keratinocyte basal medium (KBM, the above KGM without addition of growth additives (hEGF, BPE, insulin, antibacterial agents, hydrocortisone)), and culturing was further performed for 24 hours.
# After culturing for 24 hours, the medium was removed, and 2 mL of the test sample (Sample 1, see Table 10 below for final concentration) dissolved in KBM was added to each well, and culturing was performed under conditions of 37° C. and 5% CO2 for 24 hours. As a control, culturing was performed in the same manner using KBM to which no sample was added. After culturing, the medium was removed, total RNA was extracted using ISOGEN II (available from NIPPON GENE CO., LTD.), each RNA amount was measured using a spectrophotometer, and the total RNA was prepared so as to be 150 ng/μL.
# For HAS3 and GAPDH as an internal standard, the expression levels of mRNA were measured using the above total RNA as a template. […]
# [1] = test system: Normal human hair follicle dermal papilla cells (HFDPC); experiment: Follicle dermal papilla cell proliferation promotive action test (MTT); type: cell-based; details: 100 μmol/L, 4 days
# Protocol: Normal human hair follicle dermal papilla cells (HFDPC, derived from the parietal region of a person) were cultured using follicle dermal papilla cell growth medium (PCGM, available from TOYOBO CO., LTD.) containing 1% FCS and growth additives, and then the cells were collected by a trypsin treatment. The collected cells were diluted to a cell density of 1.0×10^4 cells/mL using Dulbecco's modified Eagle's medium (DMEM) containing 10% FBS, then seeded with 200 μL per well in a collagen-coated 96-well plate, and cultured for 3 days.
# After that, the medium was removed, 200 μL of the test sample (Sample 1, see Table 25 below for final concentration) dissolved in serum-free DMEM was added to each well, and culturing was further performed for 4 days. […] After the culturing was completed, the follicle dermal papilla cell proliferation promotive action was measured by MTT assay. […] The absorbance of this extract was measured at 570 nm giving the maximum absorption point of blue formazan. At the same time, the absorbance at a wavelength of 650 nm was measured as turbidity, and the difference between the two was determined as the production amount of blue formazan. From the measurement results, the follicle dermal papilla cell proliferation promotion rate (%) was calculated based on the following equation. […]
# [2] = test system: Rat basophil leukemia cells (RBL-2H3); experiment: Hexosaminidase release suppressive action test; type: cell-based; details: 500 μmol/L; RBL-2H3, DNP-specific IgE / DNP-BSA
# Protocol: Rat basophil leukemia cells (RBL-2H3) were cultured using spinner modified Eagle's minimum essential medium (S-MEM) containing 15% FBS, and then the cells were collected by a trypsin treatment. The collected cells were diluted with S-MEM containing 15% FBS to a cell density of […], DNP-specific IgE was added to a final concentration of 0.5 μg/mL, and the cells were seeded with 100 μL per well in a 96-well plate and cultured overnight.
# After culturing, the medium was removed and the cells were washed twice with 100 μL of Shiraganian buffer solution. […]
# After the reaction was completed, 250 μL of 0.1 mol/L Na2CO3/NaHCO3 was added to each well, the absorbance at wavelengths of 415 nm and 650 nm was measured, and the value obtained by subtracting the absorbance at 650 nm from the absorbance at 415 nm was adopted as the corrected value. From the obtained measurement results, the hexosaminidase release suppression rate (%) was calculated using the following equation.
# Terms in the equation represent the following respective ones. • A: Absorbance at wavelength 415-650 nm without sample addition • B: Absorbance at wavelength 415-650 nm with test sample addition
SMILES,HAS3 mRNA expression promotion rate (HAS3 mRNA),Follicle dermal papilla cell proliferation promotion rate [1],Hexosaminidase release suppression rate [2]
"O=C(O)CCc1ccc(O)c(O)c1 [Sample 1, 3,4-Dihydroxyhydrocinnamic acid]",173. 5%,124.8%,
"O=C(O)CCc1ccc(O)cc1 [Sample 2, 3-(4-Hydroxyphenyl)propionic acid]",,,19.3%
